In patent US10449184B2, “Pharmaceutical compositions of therapeutically active compounds” (Agios Pharmaceuticals, Inc., priority 2014, dated 2019):
In brackets after ≈: the same amount, converted by molar mass. Entries after “also recorded” stand apart in the source; their conditions may differ. Marks after values point to notes of the source that are not given here.

Key:
[1] = test system: IDH1 mutant R132H xenograft model; experiment: 2HG reduction in IDH1 mutant R132H xenograft model; type: in vivo; details: single dose (50 mg/kg)
[2] = test system: primary human IDH-mutated blast cells; experiment: intracellular 2HG in primary blast cells ex vivo; type: cell-based; details: 0.5 uM, 1 uM and 5 uM
[3] = Phase 1 clinical trial: safety, adverse events and patient disposition; type: in vivo, human
Excerpt: The study includes a dose escalation phase to determine MTD followed by expansion cohorts to further evaluate the safety and tolerability of the MTD. The dose escalation phase will utilize a standard “3+3” design. […] Each dose cohort will plan to enroll a minimum of 3 subjects. The first 3 subjects enrolled in each dosing cohort during the dose escalation phase of the study will initially receive a single dose of study drug on Day −3 (i.e., 3 days prior to the start of daily dosing) and undergo PK/PD assessments over 72 hours to evaluate drug concentrations and 2HG levels. The next dose of study drug will be on Cycle 1 Day 1 (C1D1) at which time daily dosing will begin. The initial dosing regimen will be twice daily (approximately every 12 hours). If warranted based on the emerging data, an alternative dosing schedule (e.g., once daily or three times daily), including administration of the same total daily dose using different dosing schedules in concurrent cohorts, may be explored. If there are multiple subjects in the screening process at the time the third subject within a cohort begins treatment, up to 2 additional subjects may be enrolled with approval of the Medical Monitor. For these additional subjects, the Day −3 through Day 1 PK/PD assessments are optional following discussion with the Medical Monitor. The planned dose escalation scheme is illustrated in Table 1.
Toxicity severity will be graded according to the National Cancer Institute Common Terminology Criteria for Adverse Events (NCI CTCAE) version 4.03. A DLT is defined as follows. Hematologic includes prolonged myelosuppression, defined as persistence of ≥3 Grade neutropenia or thrombocytopenia (by NCI CTCAE, version 4.03, leukemia-specific criteria, i.e., marrow cellularity <5% on Day 28 or later from the start of study drug without evidence of leukemia) at least 42 days after the initiation of Cycle 1 therapy. Leukemia-specific grading should be used for cytopenias (based on percentage decrease from baseline: 50 to 75%=Grade 3, >75%=Grade 4). All AEs that cannot clearly be determined to be unrelated to Compound 1, or a pharmaceutically acceptable salt thereof will be considered relevant to determining DLTs.
AEs, including determination of DLTs, serious adverse events (SAEs), and AEs leading to discontinuation; safety laboratory parameters; physical examination findings; vital signs; 12-lead ECGs; LVEF; and ECOG PS will be monitored during the clinical study. The severity of AEs will be assessed by the NCI CTCAE, Version 4.03.
Adverse events will be summarized by Medical Dictionary for Regulatory Activities (MedDRA) system organ class and preferred term. Separate tabulations will be produced for all treatment-emergent AEs (TEAEs), treatment-related AEs (those considered by the Investigator as at least possibly drug related), SAEs, discontinuations due to AEs, and AEs of at least Grade 3 severity. By-subject listings will be provided for deaths, SAEs, DLTs, and AEs leading to discontinuation of treatment.

[4] = Phase 1 clinical trial: pharmacokinetics after oral administration; type: in vivo, human; details: patients
Method: A full 72-hour PK/PD profile will be conducted: subjects will be required to remain at the study site for 10 hours on Day −3 and return on Days −2, −1, and 1 for 24, 48, and 72 hour samples, respectively.
All subjects will undergo PK/PD assessments over a 10-hour period on both C1D15 and C2D1. Additional pre-dose urine and/or blood sampling will be conducted on C1D8, C1D22, C2D15, C3D1, C3D15, and on Day 1 of all subsequent cycles. Available bone marrow biopsy samples also will be assessed for 2HG levels.
The blood samples will also be used for the determination of 2HG concentrations and for evaluation of cholesterol and 4β-OH-cholesterol levels.
The PK/PD profile from Day −3 through Day 1 is optional for additional subjects enrolled in the dose escalation phase (i.e., for any subjects beyond the 3 initial subjects enrolled in a cohort) and is not required for subjects enrolled in the expansion cohorts.
All subjects will undergo 10-hour PK/PD sampling on C1D15 and C2D1 (i.e., on Days 15 and 29 of twice daily dosing). […] Blood samples also will be drawn on Days 8 and 22 of Cycle 1, Day 15 of Cycle 2, Days 1 and 15 of Cycle 3, and Day 1 of each cycle thereafter; all samples will be obtained prior to dosing. Additionally, one blood sample will be drawn at the End of Treatment Visit.

[5] = test system: 2HG; experiment: Phase 1 clinical trial: plasma 2HG inhibition; type: in vivo, human; details: all dose levels
Method: Samples collected for PK assessments also will be used to assess 2HG levels. In addition, subjects will have blood drawn for determination of 2HG levels at the screening assessment.
The 2HG baseline was taken at Day −3 pre-treatment 2HG inhibition estimated based on 2HG pre-treatment level and AUC0-10 hr post treatment. For the 100 mg BID and 300 mg QD Cohorts, 3 to 4 patients were measured per time point and for the 500 mg QD Cohort, 1 to 3 patients were measured per time point.

[6] = test system: advanced hematologic malignancies that harbor an IDH1 mutation (R/R AML); experiment: Phase 1 clinical trial: clinical activity assessed by Investigator using IWG AML and MDS criteria; type: in vivo, human
Excerpt: Subjects will undergo radiographic evaluations (CT/MRI), and assessment of bone marrow aspirates and biopsies and peripheral blood to assess the extent of disease, at screening, on Day 15, Day 29 and Day 57, and every 56 days thereafter while on study drug treatment, independent of dose delays and/or dose interruptions, and/or at any time when progression of disease is suspected. Two core tumor biopsies will be obtained at screening, at the time of the first assessment of response, and at the time of disease progression within a window of ±3 days around the planned assessment time point. For patients with acute myelogenous leukemia (AML), response to treatment will be determined by the Investigators based on modified International Working Group (IWG) response criteria.
Disease response to treatment will be assessed through the evaluation of bone marrow biopsies and/or aspirates, along with complete blood counts and examination of peripheral blood films. Subjects will have the extent of their disease assessed and recorded at screening, on Days 15, 29, and 57, every 56 days thereafter while on study drug treatment, independent of dose-delays and/or dose interruptions, and/or at any time when progression of disease is suspected. An assessment also will be conducted at the End of Treatment visit for subjects who discontinue the study due to reasons other than disease progression.
Response to treatment as assessed by the site Investigators using modified IWG (for subjects with hematologic malignancies, such as MDS, MDS/MPN or AML). Two-sided 90% confidence intervals on the response rates will be calculated for each dose level and overall. Data will also be summarized by type of malignancy for subjects in the cohort expansion phase. Descriptive statistics will be used to summarize Ki67 levels from tumor biopsies.

[7] = solubility in fasted state simulated intestinal fluid (FASSIF); type: physicochemical; details: pH 6.1, fassif, pH of 6.1 at 4 hours
[8] = rat pharmacokinetics study of Example 4 (oral suspensions); type: in vivo, Sprague Dawley rats; details: Sprague Dawley, 200 mg/kg oral suspension in vehicle, plasma
Method: The following three homogenous suspensions of Compound 1 are provided:
Form 2 in vehicle (1% d-alpha-tocopheryl polyethylene glycol 1000 succinate (TPGS):1% HPMCAS in water), an amorphous solid dispersion of 25% w/w Form 2 and 75% w/w HPMCAS-M (Solid Dispersion A) in vehicle, and an amorphous solid dispersion of 25% w/w Form 2 and 75% w/w PVAP (Solid Dispersion B) in vehicle (200 mg/kg in 10 mL/kg).
Each suspension is prepared on the day of dosing, and the Sprague Dawley rats are dosed orally. Serial plasma samples are taken at different time points following dosing. […] PK parameters, including AUC0-72 hr and Cmax, are calculated using WinNonlin software.

Compound: N#Cc1ccnc(N2C(=O)CC[C@H]2C(=O)N(c2cncc(F)c2)[C@H](C(=O)NC2CC(F)(F)C2)c2ccccc2Cl)c1 [Compound 1, (S)—N—((S)-1-(2-chlorophenyl)-2-((3,3-difluorocyclobutyl)amino)-2-oxoethyl)-1-(4-cyanopyridin-2-yl)-N-(5-fluoropyridin-3-yl)-5-oxopyrrolidine-2-carboxamide]
- 2HG in xenograft [1]: Reduction in 2HG was observed
- intracellular 2HG [2]: reduced intracellular 2HG
- subjects discontinued study due to an intracranial bleed (SAE, resulted in death) ([3]; 100 mg BID): 1
- QT prolongation observed ([3]; 100 mg cohort, patient with history of R BBB): patient population. Other QT prolongations observed: Grade 1 prolonged
- subjects who experienced differentiation syndrome (SAE) ([3]; 300 mg QD): 1
- DLT (dose limiting toxicity) observed ([3]; 800 mg QD): One DLT (dose limiting toxicity) of grade 3 QT prolongation
- subjects who experienced tongue edema and QT prolongation (SAE) ([3]; 800 mg QD): 1
- QT prolongation observed ([3]; 800 mg cohort): 300 mg cohort; and Grade 3 prolonged QT (DLT) in 800 mg cohort.
- At least 1 adverse event ([3]; All grades): 14 (82) n (%)
- Cough ([3]; All grades): 4 (24) n (%)
- Diarrhea ([3]; All grades): 3 (18) n (%)
- Dyspnea ([3]; All grades): 5 (29) n (%)
- Electrocardiogram QT prolonged ([3]; All grades): 3 (18) n (%)
- Fatigue ([3]; All grades): 5 (29) n (%)
- Febrile neutropenia ([3]; All grades): 3 (18) n (%)
- Nausea ([3]; All grades): 5 (29) n (%)
- Pyrexia ([3]; All grades): 4 (24) n (%)
- Vomiting ([3]; All grades): 4 (24) n (%)
- Death ≤28 days after Compound 1 Discontinuation ([3]; All patients (N = 17)): 6
- Discontinued due to AE (intracranial hemorrhage) ([3]; All patients (N = 17)): 1** n
- Discontinued due to PD (progressive disease) ([3]; All patients (N = 17)): 4 n
- Death ≤28 days after Compound 1 Discontinuation ([3]; Cohort 1 100 mg BID (n = 4)): 3
- Discontinued due to AE (intracranial hemorrhage) ([3]; Cohort 1 100 mg BID (n = 4)): 1** n
- Discontinued due to PD (progressive disease) ([3]; Cohort 1 100 mg BID (n = 4)): 2 n
- Death ≤28 days after Compound 1 Discontinuation ([3]; Cohort 2 300 mg QD (n = 4)): 2
- Discontinued due to PD (progressive disease) ([3]; Cohort 2 300 mg QD (n = 4)): 1 n
- Death ≤28 days after Compound 1 Discontinuation ([3]; Cohort 3 500 mg QD (n = 4)): 1
- Discontinued due to PD (progressive disease) ([3]; Cohort 3 500 mg QD (n = 4)): 1 n
- At least 1 adverse event ([3]; Grade ≥3): 11 (65) n (%)
- Cough ([3]; Grade ≥3): 0 n (%)
- Diarrhea ([3]; Grade ≥3): 0 n (%)
- Dyspnea ([3]; Grade ≥3): 2 (12) n (%)
- Electrocardiogram QT prolonged ([3]; Grade ≥3): 1 (6) n (%)
- Fatigue ([3]; Grade ≥3): 1 (6) n (%)
- Febrile neutropenia ([3]; Grade ≥3): 3 (18) n (%)
- Nausea ([3]; Grade ≥3): 1 (6) n (%)
- Pyrexia ([3]; Grade ≥3): 1 (6) n (%)
- Vomiting ([3]; Grade ≥3): 0 n (%)
- hypotension ([3]; Grade ≥3): Notable grade ≥3 AEs include: hypotension 2 (12%), mental status n (%)
- mental status changes ([3]; Grade ≥3): changes 2 (12%), neutropenia 2 (12%). AEs appear typical for this n (%)
- neutropenia ([3]; Grade ≥3): changes 2 (12%), neutropenia 2 (12%). AEs appear typical for this n (%)
- subjects who experienced serious adverse events ([3]; all cohorts): Eight
- half-life ([4]; human, plasma): 182 h
- drug accumulation [4]: drug accumulation
- plasma exposure [4]: high plasma exposure
- plasma levels of 2HG ([5]; 100 mg BID, 300 mg QD or 500 mg QD): reduced to a normal range; also recorded: reduced to normal ranges
- plasma 2HG inhibition ([5]; vs Day -3 pre-treatment level, AUC0-10 hr post treatment): up to 98%
- CR (complete response) ([6]; Cohort 1 100 mg BID (n = 4)): 1
- Overall response rate (ORR = CR, Marrow CR and PR) ([6]; Cohort 1 100 mg BID (n = 4)): 1/4
- CR (complete response) ([6]; Cohort 2 300 mg QD (n = 4)): 1
- Overall response rate (ORR = CR, Marrow CR and PR) ([6]; Cohort 2 300 mg QD (n = 4)): 1/4
- PD (progressive disease) ([6]; Cohort 2 300 mg QD (n = 4)): 1
- CR (complete response) ([6]; Cohort 3 500 mg QD (n = 4)): 1
- Marrow CR (≤5% blasts in BM; no hematological recovery) ([6]; Cohort 3 500 mg QD (n = 4)): 2
- Overall response rate (ORR = CR, Marrow CR and PR) ([6]; Cohort 3 500 mg QD (n = 4)): 3/4
- CR (complete response) ([6]; Cohort 4 800 mg QD (n = 2)): 1
- Overall response rate (ORR = CR, Marrow CR and PR) ([6]; Cohort 4 800 mg QD (n = 2)): 2/2
- PR (partial response) ([6]; Cohort 4 800 mg QD (n = 2)): 1
- CR (complete response) ([6]; Total N = 14): 4
- Marrow CR (≤5% blasts in BM; no hematological recovery) ([6]; Total N = 14): 2
- Overall response rate (ORR = CR, Marrow CR and PR) ([6]; Total N = 14): 7/14
- PD (progressive disease) ([6]; Total N = 14): 1
- PR (partial response) ([6]; Total N = 14): 1
- blasts in bone marrow ([6]; patient refractory to 7+3, after 2 weeks of therapy): < 5%
- response of single patient ([6]; patient, after 2 weeks of therapy, maintained at D28): met the criteria for a full CR

Compound: N#Cc1ccnc(N2C(=O)CC[C@H]2C(=O)N(c2cncc(F)c2)[C@H](C(=O)NC2CC(F)(F)C2)c2ccccc2Cl)c1 [Form 2, (S)—N—((S)-1-(2-chlorophenyl)-2-((3,3-difluorocyclobutyl)amino)-2-oxoethyl)-1-(4-cyanopyridin-2-yl)-N-(5-fluoropyridin-3-yl)-5-oxopyrrolidine-2-carboxamide]
- solubility at 4 h [7]: ~18 µg/mL (≈ 30.9 µM)
- Cmax [8]: 1600 ng/mL
- AUC(0-t) ([8]; read-out: AUC0-72 hr): 21700 ng·h/mL
